# Source: the supplement of paper PMC6206229
# Legend:
# [1] = test system: Staphylococcus aureus ATCC 29213 (MSSA); experiment: minimum inhibitory concentration; extreme values may be limits of the assay
# Procedure, shortened: (§1)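 Methicillin-susceptible and methicillin-resistant Staphylococcus aureus were assessed by broth microdilution with a resazurin read-out, compounds spanning 0 to 100 µM and incubated for 24 h at 37°C before 30 µl of 0.015% resazurin was added for 2–4 h. For the minimum inhibitory concentration, the lowest concentration whose well stayed blue rather than pink was recorded.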
# [2] = test system: Staphylococcus aureus ATCC 700699 (MRSA); experiment: as above
# Procedure, shortened: as §1
Structure (SMILES),minimum inhibitory concentration [1],minimum inhibitory concentration [2]
COc1cccc(OCC(=O)c2ccc(Br)cc2)c1,> 50 µM,> 50 µM
CO/N=C(\C(=O)OC)c1ccccc1CO/N=C(\C)c1cccc(C(F)(F)F)c1,> 50 µM,> 50 µM
Cc1noc(C)c1COc1cccc(C(=O)N=c2[nH]cccc2C)c1,> 50 µM,> 50 µM
O=[N+]([O-])c1cn2c(n1)OC[C@@H](OCc1ccc(OC(F)(F)F)cc1)C2,> 50 µM,> 50 µM
NC(=O)c1cc(Br)ccc1OCCOc1ccccc1,> 50 µM,> 50 µM
Cc1cc(C(=O)Nc2ccc(-c3ccccc3)cc2)no1,> 50 µM,> 50 µM
O=C(Nc1ccc(F)c(-c2nc3cc(-c4ccccc4)cnc3[nH]2)c1)N1CCCC1,> 50 µM,> 50 µM
O=C(NC1CCCCC1)N1CCN(Cc2ccc3c(c2)OCO3)CC1,> 50 µM,> 50 µM
COc1ccc2nc(C)cc(OCC(=O)Nc3ccccc3OC)c2c1,> 50 µM,> 50 µM
CCOc1ccc2cc(-c3nn(CC4CCN(C)CC4)c4ncnc(N)c34)ccc2c1,> 50 µM,> 50 µM
Cc1cnc(N2CCN[C@@H](Cc3ccccc3)C2)nc1Oc1ccc(-n2ccnc2)cc1,> 50 µM,> 50 µM
CCC(=O)Nc1ccccc1C(=O)Nc1ccccn1,> 50 µM,> 50 µM
N=C(N)c1ccc(OCCCCCOc2ccc(C(=N)N)cc2)cc1,12.5 µM,> 50 µM
OCc1ccc(-c2cncc(Nc3cccc(Cl)c3)c2)cc1,> 50 µM,> 50 µM
COC(=O)c1cccc2oc(-c3cccc(OC)c3NC(=O)c3cc(-c4ccccc4)on3)nc12,> 50 µM,> 50 µM
c1ccc(Oc2ccc(-c3cc(C4CCOCC4)[nH]n3)cc2)cc1,> 50 µM,> 50 µM
O=C1Nc2ccc(Br)cc2C12NCCc1c2[nH]c2ccccc12 (stereo not given),> 50 µM,> 50 µM
CCn1ncc2c(NC3CCOCC3)c(CNC(=O)c3ccnn3C)c(C)nc21,> 50 µM,> 50 µM

Structure (SMILES),minimum inhibitory concentration [1],minimum inhibitory concentration [2]
CC(C)NCC(=O)Nc1cccc(C(=O)Nc2cccc(C(F)(F)F)c2)c1,> 50 µM,> 50 µM
Cc1nnc(NC(=O)c2cn(-c3ccccc3)nc2-c2ccccc2C)o1,> 50 µM,> 50 µM
O=C(NCCc1ccccc1)c1cc(-c2cccnc2)cnc1NCC1CC1,> 50 µM,> 50 µM
CCCn1nnc(NC(=O)COc2ccc(C3CCCCC3)cc2)n1,> 50 µM,> 50 µM
CCCCS(=O)(=O)Nc1ccc2cnn(C)c2c1,> 50 µM,> 50 µM
Cc1cc(NCCc2ccccc2)nc(NC(=N)Nc2ccc(Cl)cc2)n1,25 µM,25 µM
Cc1cc(C(=O)Nc2cnn(Cc3ccc(Cl)cc3Cl)c2)no1,> 50 µM,> 50 µM
CN(C)CCNC(=O)N1CCCN(c2ncnc3cc(-c4ccccc4)sc23)CC1,> 50 µM,> 50 µM
Cc1[nH]c2cc(F)cc(F)c2c(=O)c1-c1ccc(Oc2ccc(OC(F)(F)F)cc2)cc1,> 50 µM,> 50 µM
FC(F)(F)c1cc(NCCc2ccccc2)nc(-c2ccccn2)n1,> 50 µM,> 50 µM
O=C1N(Cc2cc3ccccc3s2)CC2CN(Cc3ccccc3)CCN12 (stereo not given),> 50 µM,> 50 µM
N#CCN(CCCCN1CCN(c2ccc(F)cc2)CC1)C(=O)OCc1ccccc1,> 50 µM,> 50 µM
CC(C)(C)c1cc(C(=O)N2CCN(c3nccnc3C#N)CC2)n(Cc2ccccc2)n1,> 50 µM,> 50 µM
O=C(Nc1nc(-c2ccccn2)cs1)c1cncn1-c1ccccc1,> 50 µM,> 50 µM
COc1cc(C2=NCCN2)ccc1-c1cn(-c2cccc(C3=NCCN3)c2)nn1,> 50 µM,> 50 µM
C[C@]1(O)C[C@@H](c2nc(-c3ccc4ccc(-c5ccccc5)nc4c3)c3c(N)nccn32)C1,> 50 µM,> 50 µM
Cc1cc(O)nc(-n2nc(C)cc2C)n1,> 50 µM,> 50 µM
